Blank lines part the entries; values can stand above or below the compound they belong to.
Key:
[1] = biological target: human monoaminergic receptors; assay: R-SAT functional profiling; assay type: cell-based; settings: data not shown
Excerpt: It has long been appreciated that antagonism of central muscarinic receptors can attenuate the EPS induced by antipsychotics (Miller and Hiley 1974). […] .

M4 muscarinic receptor [2] = biological target: T1, M4 muscarinic receptor (Homo sapiens, UniProt P08173); assay: R-SAT agonist assay; assay type: cell-based; set-up: expressed in transfected cells; host or cells: NIH/3T3; settings: relative to carbachol, No response/nr = no agonist activity up to 10 μM
T1 sequence (P08173 1-479): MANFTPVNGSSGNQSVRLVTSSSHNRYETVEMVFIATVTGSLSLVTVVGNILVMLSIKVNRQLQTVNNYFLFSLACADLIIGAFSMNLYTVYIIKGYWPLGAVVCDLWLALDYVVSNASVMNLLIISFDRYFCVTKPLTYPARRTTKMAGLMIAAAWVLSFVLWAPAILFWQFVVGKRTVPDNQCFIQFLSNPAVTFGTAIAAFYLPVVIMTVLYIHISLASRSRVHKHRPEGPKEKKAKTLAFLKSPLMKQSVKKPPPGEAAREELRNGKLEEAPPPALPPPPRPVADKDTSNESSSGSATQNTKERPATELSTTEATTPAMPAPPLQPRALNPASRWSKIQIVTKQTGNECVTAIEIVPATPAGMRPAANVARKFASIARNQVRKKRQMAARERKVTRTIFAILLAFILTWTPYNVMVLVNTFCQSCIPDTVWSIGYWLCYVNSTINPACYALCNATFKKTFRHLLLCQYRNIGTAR

M5 muscarinic receptor [3] = biological target: T2, M5 muscarinic receptor (Homo sapiens, UniProt P08912); assay: R-SAT agonist assay; assay type: cell-based; set-up: expressed in transfected cells; host or cells: NIH/3T3; settings: R-SAT; relative to carbachol; No response/nr = no agonist activity up to 10 μM
T2 sequence (P08912 1-532): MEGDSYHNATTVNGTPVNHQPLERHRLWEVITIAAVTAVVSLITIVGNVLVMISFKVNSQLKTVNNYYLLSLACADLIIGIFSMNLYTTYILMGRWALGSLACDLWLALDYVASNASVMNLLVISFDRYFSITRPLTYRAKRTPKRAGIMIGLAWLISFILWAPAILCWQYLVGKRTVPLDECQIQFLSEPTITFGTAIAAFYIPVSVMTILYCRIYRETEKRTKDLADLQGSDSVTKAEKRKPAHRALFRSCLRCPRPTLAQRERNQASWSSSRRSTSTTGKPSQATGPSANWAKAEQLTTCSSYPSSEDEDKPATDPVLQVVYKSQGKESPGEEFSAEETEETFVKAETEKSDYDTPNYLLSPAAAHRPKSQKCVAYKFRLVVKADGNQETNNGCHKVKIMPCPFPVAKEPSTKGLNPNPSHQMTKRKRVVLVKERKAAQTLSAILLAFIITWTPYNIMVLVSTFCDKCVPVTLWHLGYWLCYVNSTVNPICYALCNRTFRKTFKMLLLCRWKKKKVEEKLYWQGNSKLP

5-HT1A receptor [4] = biological target: T3, 5-HT1A receptor (Homo sapiens, UniProt P08908); assay: R-SAT competitive antagonist assay
T3 sequence (P08908 1-422): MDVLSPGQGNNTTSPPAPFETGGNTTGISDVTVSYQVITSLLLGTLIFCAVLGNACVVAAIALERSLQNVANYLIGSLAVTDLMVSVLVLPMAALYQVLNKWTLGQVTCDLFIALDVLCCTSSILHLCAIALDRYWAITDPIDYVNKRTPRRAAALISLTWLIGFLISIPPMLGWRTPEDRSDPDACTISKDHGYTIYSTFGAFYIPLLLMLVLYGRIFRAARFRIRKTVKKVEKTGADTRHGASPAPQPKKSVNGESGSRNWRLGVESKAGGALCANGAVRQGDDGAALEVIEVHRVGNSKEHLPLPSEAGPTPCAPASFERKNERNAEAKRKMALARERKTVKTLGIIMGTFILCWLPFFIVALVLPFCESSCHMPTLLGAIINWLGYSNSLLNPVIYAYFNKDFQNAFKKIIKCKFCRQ

5-HT7A receptor = 5-HT7A receptor (Homo sapiens, UniProt P34969); assay: R-SAT inverse agonist assay
Chain of 5-HT7A receptor (P34969 1-445 isoform P34969-2): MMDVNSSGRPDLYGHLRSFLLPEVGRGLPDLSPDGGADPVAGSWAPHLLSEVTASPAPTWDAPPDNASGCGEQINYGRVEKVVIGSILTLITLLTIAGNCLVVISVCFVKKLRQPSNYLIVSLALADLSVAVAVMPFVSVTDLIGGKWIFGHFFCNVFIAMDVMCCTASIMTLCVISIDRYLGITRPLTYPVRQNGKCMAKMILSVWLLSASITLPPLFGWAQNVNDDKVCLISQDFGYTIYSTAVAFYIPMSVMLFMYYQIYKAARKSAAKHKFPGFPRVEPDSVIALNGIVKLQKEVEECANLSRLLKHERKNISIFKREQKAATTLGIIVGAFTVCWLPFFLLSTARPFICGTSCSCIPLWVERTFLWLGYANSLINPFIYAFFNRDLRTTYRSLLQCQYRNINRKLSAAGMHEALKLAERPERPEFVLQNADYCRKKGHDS

5-HT6A receptor = 5-HT6A receptor (Homo sapiens, UniProt P50406); assay: R-SAT inverse agonist assay; settings: R-SAT; nr = no significant antagonist or inverse agonist activity up to 1 μM
Chain of 5-HT6A receptor (P50406 whole entry): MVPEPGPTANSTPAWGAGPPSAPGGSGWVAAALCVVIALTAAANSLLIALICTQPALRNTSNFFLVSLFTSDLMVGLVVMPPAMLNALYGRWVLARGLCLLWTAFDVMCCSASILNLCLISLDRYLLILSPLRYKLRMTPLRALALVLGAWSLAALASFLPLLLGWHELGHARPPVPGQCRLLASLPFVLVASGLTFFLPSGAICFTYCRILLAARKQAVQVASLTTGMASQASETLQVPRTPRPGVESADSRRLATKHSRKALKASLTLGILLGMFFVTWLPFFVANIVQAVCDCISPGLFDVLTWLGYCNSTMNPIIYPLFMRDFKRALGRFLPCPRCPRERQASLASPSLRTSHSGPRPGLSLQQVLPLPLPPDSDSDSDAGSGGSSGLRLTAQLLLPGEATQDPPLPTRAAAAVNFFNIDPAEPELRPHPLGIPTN

[5] = biological target: T4, α1A (Alpha 1A) adrenergic receptor (Homo sapiens, UniProt P35348); assay: cell-based
T4 sequence (P35348 1-466): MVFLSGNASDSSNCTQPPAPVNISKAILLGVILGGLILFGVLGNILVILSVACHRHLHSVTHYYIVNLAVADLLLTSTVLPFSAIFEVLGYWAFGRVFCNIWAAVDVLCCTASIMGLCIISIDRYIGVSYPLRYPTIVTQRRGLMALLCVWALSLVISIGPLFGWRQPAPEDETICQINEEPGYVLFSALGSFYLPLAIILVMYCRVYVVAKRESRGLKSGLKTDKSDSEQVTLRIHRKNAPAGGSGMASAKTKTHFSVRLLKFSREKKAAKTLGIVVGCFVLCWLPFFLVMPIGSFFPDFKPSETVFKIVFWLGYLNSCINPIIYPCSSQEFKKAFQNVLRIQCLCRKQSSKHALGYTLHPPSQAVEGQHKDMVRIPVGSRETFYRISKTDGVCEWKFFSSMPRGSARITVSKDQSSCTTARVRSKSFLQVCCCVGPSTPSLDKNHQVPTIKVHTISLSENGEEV

[6] = biological target: T4, α1A (Alpha 1A) adrenergic receptor; settings: R-SAT; nr = no significant antagonist or inverse agonist activity up to 1 μM; nr* = nr but significant agonist activity
M4 muscarinic receptor [7] = biological target: T1, M4 muscarinic receptor; assay: R-SAT competitive antagonist assay; settings: nr = no significant antagonist or inverse agonist activity up to 1 μM, nr* = nr but significant agonist activity
M5 muscarinic receptor [8] = biological target: T2, M5 muscarinic receptor; assay: R-SAT competitive antagonist assay; settings: nr = no significant antagonist or inverse agonist activity up to 1 μM, nr* = nr but significant agonist activity
M2 muscarinic receptor = biological target: T5, M2 muscarinic receptor (Homo sapiens, UniProt P08172); assay: R-SAT competitive antagonist assay; assay type: cell-based; set-up: expressed in transfected cells; host or cells: NIH/3T3; settings: nr = no significant antagonist or inverse agonist activity up to 1 μM, nr* = nr but significant agonist activity
T5 sequence (P08172 1-466): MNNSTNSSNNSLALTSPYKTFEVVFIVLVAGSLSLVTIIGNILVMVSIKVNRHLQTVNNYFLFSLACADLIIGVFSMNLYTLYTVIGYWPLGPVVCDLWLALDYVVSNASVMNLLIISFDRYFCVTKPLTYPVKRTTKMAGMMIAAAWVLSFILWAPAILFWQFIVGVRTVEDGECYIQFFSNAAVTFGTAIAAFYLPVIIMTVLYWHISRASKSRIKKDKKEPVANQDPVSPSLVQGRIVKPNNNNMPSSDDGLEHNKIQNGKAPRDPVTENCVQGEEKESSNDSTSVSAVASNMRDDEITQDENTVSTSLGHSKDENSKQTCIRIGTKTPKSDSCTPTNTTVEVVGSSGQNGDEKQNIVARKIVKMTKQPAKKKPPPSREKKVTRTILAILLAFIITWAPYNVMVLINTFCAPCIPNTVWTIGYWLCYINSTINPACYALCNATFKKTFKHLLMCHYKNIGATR

M1 muscarinic receptor = biological target: T6, M1 muscarinic receptor (Homo sapiens, UniProt P11229); assay: R-SAT competitive antagonist assay; assay type: cell-based; set-up: expressed in transfected cells; host or cells: NIH/3T3; settings: nr = no significant antagonist or inverse agonist activity up to 1 μM, nr* = nr but significant agonist activity
T6 sequence (P11229 1-460): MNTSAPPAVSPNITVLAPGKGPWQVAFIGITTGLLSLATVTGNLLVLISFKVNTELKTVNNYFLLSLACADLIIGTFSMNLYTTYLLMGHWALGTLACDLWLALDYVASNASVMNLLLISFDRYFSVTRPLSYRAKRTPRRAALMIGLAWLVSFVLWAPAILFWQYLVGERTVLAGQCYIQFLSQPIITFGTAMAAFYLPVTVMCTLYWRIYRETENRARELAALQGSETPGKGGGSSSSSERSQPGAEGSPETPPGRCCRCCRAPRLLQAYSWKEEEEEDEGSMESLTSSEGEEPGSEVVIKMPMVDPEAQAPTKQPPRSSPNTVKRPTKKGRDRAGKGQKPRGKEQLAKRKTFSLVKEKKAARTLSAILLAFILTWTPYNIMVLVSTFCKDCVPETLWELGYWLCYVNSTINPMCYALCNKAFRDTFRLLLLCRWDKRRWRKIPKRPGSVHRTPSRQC

5-HT1A receptor [9] = biological target: T3, 5-HT1A receptor; assay: R-SAT agonist assay; assay type: cell-based; set-up: expressed in transfected cells; host or cells: NIH/3T3; settings: relative to 8-OH-DPAT
M3 muscarinic receptor = M3 muscarinic receptor (Homo sapiens, UniProt P20309); assay: R-SAT competitive antagonist assay; assay type: cell-based; settings: nr = no significant antagonist or inverse agonist activity up to 1 μM, nr* = nr but significant agonist activity
Chain of M3 muscarinic receptor (P20309 whole entry): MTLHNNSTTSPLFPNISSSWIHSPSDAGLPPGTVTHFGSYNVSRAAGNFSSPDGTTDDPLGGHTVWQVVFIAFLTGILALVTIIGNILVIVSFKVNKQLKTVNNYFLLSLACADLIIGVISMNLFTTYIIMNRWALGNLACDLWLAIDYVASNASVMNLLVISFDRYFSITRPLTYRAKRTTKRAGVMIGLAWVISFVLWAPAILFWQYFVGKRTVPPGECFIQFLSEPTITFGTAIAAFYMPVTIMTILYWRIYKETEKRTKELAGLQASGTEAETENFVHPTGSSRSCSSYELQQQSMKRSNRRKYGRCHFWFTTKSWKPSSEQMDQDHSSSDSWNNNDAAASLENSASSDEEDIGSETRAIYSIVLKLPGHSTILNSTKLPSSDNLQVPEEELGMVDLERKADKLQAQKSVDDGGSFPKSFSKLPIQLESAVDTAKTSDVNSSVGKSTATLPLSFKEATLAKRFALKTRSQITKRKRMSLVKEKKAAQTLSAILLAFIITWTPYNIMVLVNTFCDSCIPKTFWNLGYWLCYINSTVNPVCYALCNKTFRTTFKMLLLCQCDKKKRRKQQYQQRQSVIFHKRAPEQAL

[10] = test system: apomorphine-induced climbing; assay: Reversal of apomorphine-induced climbing; settings: s.c.

- pKi, functional activity at human monoaminergic receptors [1]: < 6.0
Structure (SMILES): C[N+]1([O-])CCN(C2=Nc3cc(Cl)ccc3Nc3ccccc32)CC1 [clozapine-N-oxide]

- M4 Efficacy (M4 muscarinic receptor [2]): 116 ± 9%
- M5 Efficacy (M5 muscarinic receptor [3]): 86 ± 12%
Structure (SMILES): CCCCCCOc1nsnc1C1=CCCN(C)C1 [Xanomeline]

- Ki (5-HT1A receptor [4]): > 1000 nM
- pKi 5-HT1A, competitive antagonist (5-HT1A receptor [4]; R-SAT, nr = no significant antagonist or inverse agonist activity up to 1 μM, nr* = nr but significant agonist activity): nr* and nr*^2
- EC50 (5-HT7A receptor): 50.1 nM
- pEC50 5HT7A, inverse agonist (5-HT7A receptor; R-SAT, nr = no significant antagonist or inverse agonist activity up to 1 μM): 7.3 ± 0.1
- pEC50 5HT6A, inverse agonist (5-HT6A receptor): nr
- Ki [5]: 39.8 nM
- pKi α1A, competitive antagonist [6]: 7.4 ± 0.2
- pKi M4, competitive antagonist (M4 muscarinic receptor [7]): nr
- pKi M5, competitive antagonist (M5 muscarinic receptor [8]): nr
- pKi M2, competitive antagonist (M2 muscarinic receptor): nr
- pKi M1, competitive antagonist (M1 muscarinic receptor): nr
- agonist efficacy at human 5-HT1A receptors (5-HT1A receptor [9]): < 30%
- pKi M3, competitive antagonist (M3 muscarinic receptor): nr
Structure (SMILES): O=C1Cc2cc(CCN3CCN(c4nsc5ccccc45)CC3)c(Cl)cc2N1 [Ziprasidone, reference compound]

Structure (SMILES): O=C(CCCN1CCC(O)(c2ccc(Cl)cc2)CC1)c1ccc(F)cc1 [Haloperidol]
- dose that completely attenuated apomorphine-induced climbing [10]: 0.1 mg/kg

Reference: US20050085463A1 (priority 2003, published 2005)
